Laboratory results as given in patent US12545695B2, “Compounds for inhibiting neovascularization factors and use thereof” (UNIST (ULSAN NATIONAL INSTITUTE OF SCIENCE AND TECHNOLOGY), priority 2019, dated 2026).

Columns and labels:
[1] = test system: TRAP-1; assay: Pull-down assay: client proteins SIRT3 and SDHB on GST-TRAP1 beads; assay type: binding; details: TRAP1-bead form with isolated mitochondria and drug, 4° C., 18 hours (FIG. 14)
Experimental: A pull-down assay was performed to confirm whether SMx competitively binds to SIRT3 and SDHB, which are known as client proteins of TRAP-1. TRAP1 protein in the GST fusion form was purified from bacteria cells and then bound to glutathione beads to make a TRAP1-bead form, and then the TRAP1-bead form was bound to the mitochondria isolated from mammalian cells (Thermo Scientific mitochondria isolation kit) with a drug at 4° C. for 18 hours. The cells were treated with SMx, and gamitrinib and PU-H71, which are previously developed N-terminal domain inhibitors of hsp90s, as the drugs, according to the concentrations shown in the drawing. […] This is strong evidence that SMx has the ability to bind to the middle domain of TRAP-1.

[2] = test system: TRAP-1; assay: ATPase activity assay (PiColorLock Gold Phosphate Detection Kit); assay type: biochemical; details: TRAP1 0.5 μM, 0.2 mM ATP, inhibitor 0.520 μM preincubated 30 minutes (FIG. 16)
Experimental: ATPase activity was measured by measuring the release of inorganic phosphates through the PiColorLock Gold Phosphate Detection Kit (Innova Biosciences) according to the manufacturer's manual. TRAP1 (0.5 μM) was cultured with 0.2 mM ATP in 100 mM Tris, 20 mM KCl, and 6 mM MgCl2 under the conditions of pH 7.0 and 37° C. for 3 hours. Thereafter, the PiColorLock Gold reagent and an accelerator (100:1) were added to a 100 μL ATP hydrolyzate sample. After culturing at 25° C. for 5 minutes, the change in color was stopped by adding 10 μL of a stop solution thereto, and the absorbance at 620 nm was measured by SYNERGY NEO microplate reader (BioTek Instruments).
For inhibitory ability analysis, TRAP1 was cultured with a predetermined concentration (0.520 μM) of inhibitor for 30 minutes and then stirred with ATP. Absorbance values were normalized to a DMSO control and data was expressed as % ATPase activity.
For inhibitory ability analysis, TRAP-1 was cultured with a predetermined concentration (0.520 μM) of inhibitor for 30 minutes and then stirred with ATP. Absorbance values were normalized to a DMSO control and data was expressed as % ATPase activity.

| Compound | binding of the client protein (SIRT3, SDHB) to TRAP-1 [1] | ATPase activity of TRAP-1 [2] |
| --- | --- | --- |
| gamitrinib | not significantly changed | – |
| CC(C)NCCCn1c(Sc2cc3c(cc2I)OCO3)nc2c(N)ncnc21 [PU-H71] | not significantly changed | significantly decreased according to the concentration |
